This assay deals with T1, human PAD4 (Homo sapiens, UniProt Q9UM07).
T1 construct: human PAD4 (NM_012387), A2-P663, was PCR amplified; His-SUMO (N, cleaved yes); made in house; host or cells: E. coli BL21(DE3)
The assay is described as follows: In vitro PAD4 BAEE biochemical assay. The conditions noted are these: BAEE substrate 3 mM, 5 nM PAD4, 2 mM calcium chloride; geometric mean of multiple experiments. The procedure, abridged: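 Assay was run at 25 °C using 3 mM BAEE and 5 nM human PAD4 after a 30 min compound preincubation; ammonia produced over 2 h was quantified by OPA-derived fluorescence. Full inhibition was defined by 50 µM BB-Cl-Amidine, and IC50 came from variable-slope nonlinear regression.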

Drawing on patent US11976083B2, “Inhibitors of peptidylarginine deiminases” (Gilead Sciences, Inc., priority 2020, dated 2024), this text covers IC50 for 18 compounds.

For orientation: IC50 means the concentration at which inhibition is half-maximal.

T1 sequence (Q9UM07 2-663): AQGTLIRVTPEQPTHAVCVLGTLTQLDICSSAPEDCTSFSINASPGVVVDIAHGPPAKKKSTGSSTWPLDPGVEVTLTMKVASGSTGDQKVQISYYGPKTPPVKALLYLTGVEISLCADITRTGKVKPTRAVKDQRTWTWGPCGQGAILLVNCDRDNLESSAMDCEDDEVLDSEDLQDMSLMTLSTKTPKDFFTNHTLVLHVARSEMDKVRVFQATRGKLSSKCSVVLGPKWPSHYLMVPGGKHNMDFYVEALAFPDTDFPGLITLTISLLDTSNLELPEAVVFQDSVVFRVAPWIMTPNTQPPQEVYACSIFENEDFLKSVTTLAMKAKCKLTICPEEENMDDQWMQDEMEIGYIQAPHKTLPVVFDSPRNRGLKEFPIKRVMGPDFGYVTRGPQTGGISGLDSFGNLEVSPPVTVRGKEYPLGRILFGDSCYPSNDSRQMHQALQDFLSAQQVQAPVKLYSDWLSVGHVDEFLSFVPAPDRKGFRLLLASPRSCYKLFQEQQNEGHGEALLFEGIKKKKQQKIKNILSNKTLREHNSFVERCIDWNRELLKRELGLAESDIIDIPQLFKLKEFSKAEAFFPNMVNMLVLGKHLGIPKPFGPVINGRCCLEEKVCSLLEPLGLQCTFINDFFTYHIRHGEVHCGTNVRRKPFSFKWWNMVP

Turning to `COc1cc(C(=O)N2C[C@H]3CC[C@@H]2[C@@H]3N)cc2nc(-c3cc4ccc5nc4n3CCCCCc3nccnc3C(=O)N[C@@H]5C)n(C)c12` [Example 604, (2~{R})-17-[5-[(1~{R},4~ {R},7~{R})-7-amino-2-azabicyclo[2.2.1]heptane-2-carbonyl]-7-methoxy-1-methyl-benzimidazol-2-yl]-2-methyl-3,6,9,16,22-pentazatetracyclo[14.5.2.0^ {5,10}.0^{19,23}]tricosa-1(21),5(10),6,8,17,19,22-heptaen-4-one], the IC50 came to 86 nM.
Under `COc1cc(C(=O)N2CC[C@H]3OCCN[C@H]3C2)cc2nc(-c3cc4ccc5cc4n3CCCCCCC3(CC3)C(=O)N[C@@H]5C)n(C)c12` [Example 208, (11~{R})-17-[5-[(4~{a}-{S},8~{a}~{R})-2,3,4,4~{a},5,7,8,8~{a}-octahydropyrido[4,3-b][1,4]oxazine-6-carbonyl]-7-methoxy-1-methyl-benzimidazol-2-yl]-11-methyl-spiro[1,10-diazatricyclo[10.5.2.0^{15,18}]nonadeca-12(19),13,15(18),16-tetraene-8,1′-cyclopropane]-9-one] stands 136 nM.
In the case of `COc1cc(C(=O)N[C@H]2CNCC[C@@H]2F)cc2nc(-c3cc4ccc5nc4n3CCCCC[C@H]3C[C@H]3C(=O)N[C@@H]5C)n(C)c12` [Example 518] it was 49 nM; in that of `C[C@H]1NC(=O)[C@@H]2C[C@H]2CC(F)(F)CCCn2c(-c3nc4cc(C(=O)N[C@H]5CNCC[C@@H]5F)c(F)cc4n3C)cc3ccc1nc32` [Example 625, 2-[(2~{R},5~{R},7~{S})-9,9-difluoro-2-methyl-4-oxo-3,13,19-triazatetracyclo[11.5.2.0^ {5,7}.0^{16,20}]icosa-1(19),14,16(20),17-tetraen-14-yl]-6-fluoro-~ {N}-[(3~{S},4~{S})-4-fluoro-3-piperidyl]-1-methyl-benzimidazole-5-carboxamide], 9 nM; in that of `[2H]C([2H])([2H])O[C@@H]1CCN(C(=O)c2cc(OC)c3c(c2)nc(-c2cc4ccc5nc4n2CCCCCc2cncc(F)c2C(=O)N[C@@H]5C)n3C)C[C@@H]1N` [Example 659, (2~{R})-17-[5-[(3~{S),4~{R})-3-amino-4-(trideuteriomethoxy)piperidine-1-carbonyl]-7-methoxy-1-methyl-benzimidazol-2-yl]-6-fluoro-2-methyl-3,8,16,22-tetrazatetracyclo[14.5.2.0^ {5,10}.0^{19,23}] tricosa-1(22),5,7,9,17,19(23), 20-heptaen-4-one], 32 nM.
With `COc1cc(C(=O)N2[C@H]3CC[C@@H]2[C@H](N)C3)cc2nc(-c3cc4ccc5nc4n3C[C@H]3C[C@@H]3COCC(=O)N[C@@H]5C)c(C)n12` [Example 325, (3~{S},5~{S},11~{R})-17-[7-[(1~{R},2~{R},4~{S})-2-amino-7-azabicyclo[2.2.1]heptane-7-carbonyl]-5-methoxy-3-methyl-imidazo[1,2-a]pyridin-2-yl]-11-methyl-7-oxa-1,10,19-triazatetracyclo[10.5.2.0^{3,5}.0^{15,18}] nonadeca-12(19),13,15(18),16-tetraen-9-one], the IC50 is 16 nM.
In the case of `C[C@H]1NC(=O)c2ccccc2CCCC(F)(F)Cn2c(-c3nc4cc(C(=O)N[C@H]5CNCC[C@@H]5F)c(F)cc4n3C)cc3ccc1nc32` [Example 597, 2-[(2~{R})-14,14-difluoro-2-methyl-4-oxo-3,16,22-triazatetracyclo[14.5.2.0^ {5,10}.0^{19,23}]tricosa-1(21),5(10),6,8,17,19,22-heptaen-17-yl]-6-fluoro-~ {N}-[(3~{S},4~{S})-4-fluoro-3-piperidyl]-1-methyl-benzimidazole-5-carboxamide] it was 42 nM; in that of `C[C@H]1NC(=O)[C@@H]2C[C@H]2CCCCCn2c(-c3nc4cc(C(=O)N5C[C@H](N)[C@@H]6CC[C@H]5C6)ccc4n3C3CC3)cc3ccc1nc32` [Example 913, (2~{R},5~{R},7~{R})-14-[5-[(1~{S},4~{R},5~{R})-4-amino-2-azabicyclo[3.2.1]octane-2-carbonyl]-1-cyclopropyl-benzimidazol-2-yl]-2-methyl-3,13,19-triazatetracyclo [11.5.2.0^{5,7}.0^{16,20}] icosa-1(19),14,16(20),17-tetraen-4-one], 22 nM.
Under `COc1cc(C(=O)N2CC[C@@H](OC)[C@@H](N)C2)cc2nc(-c3cc4ccc5nc4n3CCCCCC[C@](F)(c3ccccn3)C(=O)N[C@@H]5C)n(C)c12` [Example 869, (8~{S},11~{R})-17-[5-[(3~ {S},4~{R})-3-amino-4-methoxy-piperidine-1-carbonyl]-7-methoxy-1-methyl-benzimidazol-2-yl]-8-fluoro-11-methyl-8-(2-pyridyl)-1,10,19-triazatricyclo[10.5.2.0^ {15,18}]nonadeca-12(19), 13,15(18),16-tetraen-9-one] stands 24 nM.
In the case of `C[C@H]1NC(=O)c2c(ccnc2C(F)(F)F)CCCCCn2c(-c3nc4cc(C(=O)N5C[C@H](N)[C@@H]6CC[C@H]5C6)cc(F)c4n3C3CC3)cc3ccc1nc32` [Example 478, (2~{R})-17-[5-[(1~{S},4~{R},5~{R})-4-amino-2-azabicyclo[3.2.1]octane-2-carbonyl]-1-cyclopropyl-7-fluoro-benzimidazol-2-yl]-2-methyl-6-(trifluoromethyl)-3,7,16,22-tetrazatetracyclo[14.5.2.0^{5,10).0^{19,23}] tricosa-1(22),5(10),6,8,17,19(23),20-heptaen-4-one] it was 50 nM.
On to `COc1cc(C(=O)N2[C@H]3CC[C@@H]2[C@H](N)C3)cc2nc(-c3cc4ccc5nc4n3CCCCC[C@H](OC)C(C)(C)C(=O)N[C@@H]5C)n(C)c12` [Example 220, (7~{S),11~{R})-17-[5-[(1~{R},2~{R},4~{S})-2-amino-7-azabicyclo[2.2.1]heptane-7-carbonyl]-7-methoxy-1-methyl-benzimidazol-2-yl]-7-methoxy-8,8,11-trimethyl-1,10,19-triazatricyclo[10.5.2.0^{15,18}]nonadeca-12(19),13,15(18),16-tetraen-9-one], for which the IC50 was 49 nM.
In the case of `COc1cc(C(=O)N2CCC[C@@H](N)C2)cc2nc(-c3cc4ccc5nc4n3CCCC#Cc3cnn(C)c3C(=O)N[C@@H]5C)n(C)c12` [Example 171, (2~{R})-16-[5-[(3~{R})-3-aminopiperidine-1-carbonyl]-7-methoxy-1-methyl-benzimidazol-2-yl]-2,6-dimethyl-3,6,7,15,21-pentazatetracyclo[13.5.2.0^{5,9}.0^{18,22}] docosa-1(21),5(9),7,16,18(22),19-hexaen-10-yn-4-one] it was 804 nM.
Under `C[C@H]1NC(=O)[C@@H]2C[C@]2(F)CCCCCn2c(-c3nc4cc(C(=O)N5C[C@H](N)[C@@H]6CC[C@H]5C6)cc(F)c4n3C3CC3)cc3ccc1nc32` [Example 712, (2~{R},5~{S},7~{R})-14-[5-[(1~{S},4~{R},5~ {R})-4-amino-2-azabicyclo [3.2.1]octane-2-carbonyl]-1-cyclopropyl-7-fluoro-benzimidazol-2-yl]-7-fluoro-2-methyl-3,13,19-triazatetracyclo[11.5.2.0^ {5,7}.0^{16,20}] icosa-1(19),14,16(20), 17-tetraen-4-one] stands 24 nM; under `COc1cc(C(=O)N2C[C@H]3CC[C@@H]2[C@@H]3N)cc2nc(-c3cc4ccc5nc4n3CCCCCCCCCC(=O)N[C@@H]5C)c(C)n12` [Example 290, (13~{R})-19-[7-[(1~{R},4~{R},7~{R})-7-amino-2-azabicyclo[2.2.1]heptane-2-carbonyl]-5-methoxy-3-methyl-imidazo[1,2-a]pyridin-2-yl]-13-methyl-1,12,21-triazatricyclo[12.5.2.0^{17,20}]henicosa-14(21),15,17(20),18-tetraen-11-one], 221 nM.
Under `COc1cc(C(=O)N[C@H]2CNCC[C@@H]2F)cc2nc(-c3cc4ccc5nc4n3CCCCC[C@@H]3C[C@H]3C(=O)N[C@@H]5C)n(C)c12` [Example 184, ~{N}-[(3~{S},4~{S})-4-fluoro-3-piperidyl]-7-methoxy-1-methyl-2-[(2~{R},5~{R},7~{R})-2-methyl-4-oxo-3,13,19-triazatetracyclo[11.5.2.0^{5,7}.0^{16,20}]icosa-1(19),14,16(20),17-tetraen-14-yl]benzimidazole-5-carboxamide] stands 42 nM.
Take `COc1cc(C(=O)N[C@H]2CNCC[C@@H]2F)cc2nc(-c3cc4ccc5nc4n3CCCCCc3cccc(F)c3C(=O)N[C@@H]5C)n(C)c12` [Example 345, 2-[(2~{R})-6-fluoro-2-methyl-4-oxo-3,16,22-triazatetracyclo[14.5.2.0^{5,10}.0^{19,23)]tricosa-1(22),5,7,9,17,19(23),20-heptaen-17-yl]-~{N}-[(3~{S},4~{S})-4-fluoro-3-piperidyl]-7-methoxy-1-methyl-benzimidazole-5-carboxamide]: the IC50 amounted to 60 nM.
Under `COc1cc(C(=O)N2C[C@H](N)[C@@H]3CC[C@H]2C3)cc2nc(-c3cc4ccc5nc4n3CCCCCc3cc(Cl)ccc3C(=O)N[C@@H]5C)n(C)c12` [Example 901, (2~{R})-17-[5-[(1~{S),4~{R}, 5~{R})-4-amino-2-azabicyclo [3.2.1]octane-2-carbonyl]-7-methoxy-1-methyl-benzimidazol-2-yl]-8-chloro-2-methyl-3,16,22-triazatetracyclo [14.5.2.0^{5,10}.0^{19,23}] tricosa-1(22),5(10),6,8,17, 19(23),20-heptaen-4-one] stands 59 nM; under `C[C@H]1NC(=O)[C@]2(C)C[C@H]2CCCC(F)(F)Cn2c(-c3nc4cc(C(=O)N5[C@H]6CC[C@@H]5[C@H](N)C6)c(F)cc4n3C)cc3ccc1nc32` [Example 554, (2~{R},5~{R},7~ {R})-14-[5-[(1~{R},2~ {R},4~{S})-2-amino-7-azabicyclo[2.2.1]heptane-7-carbonyl]-6-fluoro-1-methyl-benzimidazol-2-yl]-11,11-difluoro-2,5-dimethyl-3,13,19-triazatetracyclo[11.5.2.0^ {5,7}.0^{16,20}]icosa-1(19), 14,16(20),17-tetraen-4-one], 34 nM.
